A short description of series [1]: Stability (half-life) in human blood plasma. In kind it is in vitro ADME. The method, then: The agent of the present invention may contain the peptide derivative of an aryl diester of alpha-aminoalkylphosphonic acids. […] These derivatives are contained in human blood plasma, and remarkably stable under a variety of circumstances. For example, the preferred inhibitor Suc-Val-Pro-Phe^P(OPh)2, particularly preferably, Suc-Val-Pro-L-Phe^P(OPh)2 contained in the agent of the present invention, has a half-life of about 20 hours in human blood plasma. This stability is important, because it is predicted that a peritoneal exudate neutralizes most of protease inhibitors to damage their activity. Aminoalkylphosphonic acids are analogous of alpha-amino acids, and designated by the generally acceptable three-letter abbreviation for an amino acid followed by the superscript P. For example, diphenyl alpha-(N-benzyloxycarbonylamino)ethylphosphonate which is related to alanine is abbreviated Cbz-Ala^P(OPh)2.

The target in series [2] is T1, chymase (Homo sapiens, UniProt P23946).
T1 construct: the chymase activity in the blood vessel tissue of the living body; from tissue; host or cells: blood vessel tissue of the living body
T1 sequence (P23946 22-247): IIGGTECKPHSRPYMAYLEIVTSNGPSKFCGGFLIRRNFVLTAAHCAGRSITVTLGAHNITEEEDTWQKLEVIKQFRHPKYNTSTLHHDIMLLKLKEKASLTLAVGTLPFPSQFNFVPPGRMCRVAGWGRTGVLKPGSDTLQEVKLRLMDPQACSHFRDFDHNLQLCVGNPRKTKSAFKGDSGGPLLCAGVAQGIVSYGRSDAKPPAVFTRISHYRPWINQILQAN
Nature of the series: Suppression of chymase activity in blood vessel tissue of the living body after use during operation. In kind it is in vivo. The conditions noted are these: used at 10 μM during the operation; effect for 4 weeks. The method, then: The agent of the present invention allows at least one protease inhibitor to be administered in a substantially sufficient amount so that the inhibitor may exist by an effective concentration in the site of heart to protect. […] The effective administration amount of chymase inhibitor (Suc-Val-Pro-L-Phe^P(Oph)2) can be selected in the range from 0.0001 to 100 mg per 1 kg of adult body weight, per one day. For example, it is administered intravenously by an amount selected in the range from 0.001 to 100 mg, preferably from 0.01 to 1 mg, and orally by an amount selected in the range from 0.1 to 100 mg, preferably from 0.1 to 10 mg.

Series [3] has as its system Syrian hamsters myocardial infarction model. Nature of the series: Survival rate after myocardial infarction (left coronary artery ligation) with oral administration. The conditions noted are these: placebo 39.1%. In kind it is in vivo. The method, then: The left coronary artery was ligated in Syrian hamsters (SLC, Co., Ltd., Shizuoka, Japan), 6 weeks of age, weighing 85 to 90 g, to prepare a myocardial infarction model (Jpn. J. Pharmacol., 86, p. 203-214 2001 life Sci. 71 p. 437-446 2002). […] It should be noted that the significant test was performed by log rank test using the survival curve.

On to Suc-Val-Pro-Phe^P(OPh)2, for which the “half-life in human blood plasma” value in series [1] was “about 20 hours”.

As for `CC(C)C(NC(=O)CCC(=O)O)C(=O)N1CCCC1C(=O)NC(Cc1ccccc1)P(=O)(Oc1ccccc1)Oc1ccccc1` [Suc-Val-Pro-L-Phe^P(OPh)2], the “chymase activity in the blood vessel tissue of the living body” value in series [2] is “suppress significantly”. Also, the “survival rate up to the 14th day” value in series [3] (10 mg/kg orally once a day, administered from the day before the operation, log rank test significant, FIG. 1) came out at 88.9%; in series [3] (10 mg/kg orally, administered from the day after the operation, significant, FIG. 2) it was 88.9%. Besides, the “half-life in human blood plasma” value in series [1] is listed as “about 20 hours”.
